The results in this text go back to ChEMBL document CHEMBL1140899, “Computational studies of epidermal growth factor receptor: docking reliability, three-dimensional quantitative structure-activity relationship analysis, and virtual screening studies” (J Med Chem, 2009).

In the experiment the target is Epidermal growth factor receptor (Homo sapiens, UniProt P00533).
Epidermal growth factor receptor, sequence (P00533 whole entry): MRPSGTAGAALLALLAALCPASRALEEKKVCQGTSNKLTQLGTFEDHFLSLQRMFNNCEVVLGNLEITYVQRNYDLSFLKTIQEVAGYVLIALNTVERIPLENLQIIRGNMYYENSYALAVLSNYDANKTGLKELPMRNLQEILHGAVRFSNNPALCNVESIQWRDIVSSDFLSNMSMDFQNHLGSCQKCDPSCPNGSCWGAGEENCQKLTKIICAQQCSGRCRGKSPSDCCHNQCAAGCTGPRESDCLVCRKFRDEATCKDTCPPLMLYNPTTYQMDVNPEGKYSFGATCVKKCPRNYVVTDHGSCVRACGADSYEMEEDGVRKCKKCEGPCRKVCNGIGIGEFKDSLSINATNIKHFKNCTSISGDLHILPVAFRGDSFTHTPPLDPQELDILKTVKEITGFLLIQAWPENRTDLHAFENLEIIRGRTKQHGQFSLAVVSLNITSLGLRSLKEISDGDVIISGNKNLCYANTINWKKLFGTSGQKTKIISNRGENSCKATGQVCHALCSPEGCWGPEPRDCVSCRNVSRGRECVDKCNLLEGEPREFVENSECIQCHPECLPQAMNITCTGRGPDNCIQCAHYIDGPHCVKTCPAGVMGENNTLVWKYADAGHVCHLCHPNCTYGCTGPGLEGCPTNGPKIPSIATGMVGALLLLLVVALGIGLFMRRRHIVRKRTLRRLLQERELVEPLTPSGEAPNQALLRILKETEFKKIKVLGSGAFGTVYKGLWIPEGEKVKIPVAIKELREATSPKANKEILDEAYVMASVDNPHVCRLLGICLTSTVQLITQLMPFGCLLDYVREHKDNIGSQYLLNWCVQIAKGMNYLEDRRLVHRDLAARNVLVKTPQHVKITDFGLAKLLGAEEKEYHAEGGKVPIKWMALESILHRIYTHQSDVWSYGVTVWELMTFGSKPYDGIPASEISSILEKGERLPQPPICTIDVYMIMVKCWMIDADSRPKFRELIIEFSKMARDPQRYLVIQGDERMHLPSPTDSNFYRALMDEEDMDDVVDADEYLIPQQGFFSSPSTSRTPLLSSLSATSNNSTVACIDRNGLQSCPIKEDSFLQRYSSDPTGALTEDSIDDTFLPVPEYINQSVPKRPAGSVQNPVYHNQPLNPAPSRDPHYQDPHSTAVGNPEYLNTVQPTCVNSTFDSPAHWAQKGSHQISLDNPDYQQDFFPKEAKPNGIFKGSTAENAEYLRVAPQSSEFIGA
Description: Inhibition of human recombinant EGFR
The IC50 is the concentration that inhibits the measured activity by half. The low end stands for greater potency in that assay, the high end for weaker potency in that assay. Consider `C=CC(=O)Nc1ccc2ncnc(Cc3cccc(C)c3)c2c1`, for which the IC50 is 0.417 nM.
Next, `C=CC(=O)Nc1ccc2ncnc(Cc3ccc(F)c(Cl)c3)c2c1`: 0.759 nM; `O=C(O)/C=C/C(=O)Cc1ccc2ncnc(Nc3cccc(Br)c3)c2c1`: 0.372 nM.
`O=C(CCCN1Cc2cc3c(Nc4cccc(Br)c4)ncnc3cc21)N1CCOCC1` had an IC50 of 8.71 nM.
In the case of `C=CC(=O)Nc1cc2ncnc(Nc3ccc(F)c(Br)c3)c2[nH]1` it was 1.2 nM; in that of `C=CC(=O)N(C)c1nc2c(Cc3ccc(F)c(Cl)c3)ncnc2cc1OCCCN1CCOCC1`, 20 nM; in that of `C=C(C)C(=O)Cc1ccc2ncnc(Nc3cccc(Br)c3)c2c1`, 1.2 nM.
With `C=CC(=O)C(CCCN1CCOCC1)c1ccc2ncnc(Nc3cccc(Br)c3)c2c1` (stereo not drawn), half-maximal inhibition (IC50) required 3.31 nM.
Consider `COc1cc2nccc(Nc3ccc(F)c(Cl)c3)c2cc1NC(=O)/C=C/C(C)N(C)C` (stereo not drawn), for which the midpoint of inhibition, the IC50, lay at 5220 nM.
Next, `COc1cc2nccc(Nc3ccc(F)c(Cl)c3)c2cc1NC(=O)/C=C/C(C)N1CCOCC1` (stereo not drawn): 10600 nM; `C=CC(=O)Nc1cc2c(Cc3cccc(Br)c3)ncnc2cc1SCCCN(CC)CC`: 0.776 nM; `COc1cc2ncnc(Nc3ccc(F)c(Cl)c3)c2cc1CN(C)[C@H](C)C(N)=O`: 9 nM.
`O=C(/C=C/C(=O)NCCCn1ccnc1)Cc1cc2c(Nc3cccc(Br)c3)ncnc2cn1` had an IC50 of 0.562 nM.
Regarding `C=CC(=O)NC1=NC=C2N=CN=C(Nc3ccc(F)c(Br)c3)C21` (stereo not drawn), the IC50 was 0.724 nM.
Next, `C=CC(=O)NC1=NC=C2N=CN=C(Nc3ccc(F)c(Cl)c3)C21` (stereo not drawn): 0.776 nM; `C=CC(=O)NC1=CC=C2N=CN=C(Nc3cccc(Cl)c3)C21` (stereo not drawn): 1.58 nM; `COc1cc2ncnc(Nc3ccc(F)c(Cl)c3)c2cc1CN(C)[C@@H](C)C(N)=O`: 8 nM.
`COc1cc2nccc(Nc3ccc(F)c(Cl)c3)c2cc1NC(=O)/C=C/CN1CCOCC1` gave an IC50 of 13600 nM.
Next, `C=CC(=O)Nc1cc2c(Cc3ccc(F)c(Cl)c3)ncnc2cc1OCCCN1CCOCC1`: 1.51 nM; `CCOC(=O)/C=C/C(=O)Cc1ccc2ncnc(Nc3cccc(Br)c3)c2c1`: 2.69 nM; `C=CC(=O)Nc1cc2c(Cc3ccc(F)c(Br)c3)ncnc2cc1OCCCN1CCOCC1`: 1.82 nM.
In the case of `O=C(O)CCNc1cc2ncnc(Nc3cccc(Br)c3)c2cn1` it was 0.603 nM; in that of `CCOc1cc2nccc(Nc3cccc(Br)c3)c2cc1NC(=O)/C=C/CN1CCOCC1`, 10300 nM; in that of `CN(N)C/C=C/C(=O)Nc1cc2c(Nc3cccc(Br)c3)ccnc2cn1`, 8.6 nM.
Consider `C=CC(=O)NC1=NC=C2N=CN=C(Nc3cccc(C)c3)C21` (stereo not drawn), for which it took 0.479 nM to reach half-maximal inhibition (IC50).
Turning to `C=C=CC(=O)Cc1ccc2ncnc(Nc3cccc(Br)c3)c2c1`, the IC50 was 1.58 nM.
In the case of `C=CC(=O)Nc1ccc2ncnc(Cc3ccc(F)c(Cl)c3)c2n1` it was 0.759 nM; in that of `C=CC(=O)C(C)c1cc2c(Nc3cccc(Br)c3)ncnc2cn1` (stereo not drawn), 0.17 nM.
Next, `OCC(O)CN1Cc2cc3c(Nc4cccc(Br)c4)ncnc3cc21` (stereo not drawn): 1.58 nM.
In the case of `CCOC(=O)/C=C/C(=O)Cc1cc2c(Nc3cccc(Br)c3)ncnc2cn1` it was 1.51 nM.
Take `C=CC(=O)Nc1cc2c(Cc3cccc(C)c3)ncnc2cc1OCCCN1CCOCC1`: the IC50 was 1.51 nM.
With `CCN(CC)CCCNC(=O)/C=C/C(=O)Cc1cc2c(Nc3cccc(Br)c3)ncnc2cn1`, the IC50 is 0.724 nM.
`CC(C(=O)/C=C/C(=O)NCCCN(C)C)c1cc2c(Nc3cccc(Br)c3)ncnc2cn1` (stereo not drawn) showed an IC50 of 1.45 nM.
Next, `C=CC(=O)Nc1cc2c(Cc3ccc(F)c(Cl)c3)ncnc2cc1OCCOCCCCO`: 1.7 nM; `C=CC(=O)Nc1nc2c(Cc3ccc(F)c(Cl)c3)ncnc2cc1/C=C/CCN1CCOCC1`: 0.158 nM.
Take `O=C(O)CN1Cc2cc3c(Nc4cccc(Br)c4)ncnc3cc21`: the IC50 is 5.13 nM.
Consider `C=CC(=O)Nc1ccc2ncnc(Cc3ccc(CN(C)C)c(Br)c3)c2c1`, for which 44.7 nM corresponded to half-maximal inhibition (IC50).
Next, `O=C(Nc1ccc(F)cc1)Nc1ncnc2nn3ccccc3c12`: 10000 nM.
Consider `C=CC(=O)Nc1ccc2ncnc(Cc3cccc(Br)c3)c2c1`, for which the IC50 is 0.708 nM.
Take `O=C(Nc1ccc(Br)cc1)Nc1ncnc2nn3ccccc3c12`: the IC50 is 10000 nM.
The compound `O=C(/C=C/CC(=O)Nc1ccc2ncnc(Nc3cccc(Br)c3)c2c1)Nc1ccc2c(Nc3cccc(Br)c3)ncnc2c1` gave an IC50 of 0.447 nM.
Take `C=CC(=O)Cc1cc2c(Nc3cccc(Br)c3)ncnc2cn1`: the IC50 came to 0.912 nM.
In the case of `Nc1ncnc2nn3ccccc3c12` it was 10000 nM; in that of `C=C(C)C(=O)Cc1cc2c(Nc3cccc(Br)c3)ncnc2cn1`, 1.58 nM; in that of `COc1cc(NC(=O)/C=C/CN2CCOCC2)cc2c(Nc3cccc(Br)c3)ccnc12`, 5390 nM.
For the compound `COc1cc2ncnc(Nc3ccc(F)c(Cl)c3)c2cc1CN1CC[C@@H](C(N)=O)C1`, the IC50 was determined as 6 nM.
The compound `C=CC(=O)Nc1cc2ncnc(Nc3cccc(Br)c3)c2[nH]1` had an IC50 of 1.1 nM.
Take `C/C=C/C(=O)Cc1cc2c(Nc3cccc(Br)c3)ncnc2cn1`: the IC50 is 0.501 nM.
Next, `O=S(=O)(CO)Nc1cc2c(Nc3cccc(Br)c3)ncnc2cn1`: 93.3 nM; `O=C(Nc1cccc([N+](=O)[O-])c1)Nc1ncnc2nn3ccccc3c12`: 10000 nM; `CS(=O)(=O)CCN(CCCCOc1ccc2ncnc(Nc3ccc(OCc4ccccc4)cc3)c2c1)C(=O)C(F)(F)F`: 234 nM.
Next, `C=CC(=O)Nc1cc2c(Cc3cccc(Br)c3)ncnc2cc1OCCCCN(C)C`: 3.89 nM; `C/C=C/C(=O)Cc1ccc2ncnc(Nc3cccc(Br)c3)c2c1`: 0.55 nM; `C=CC(=O)NC1=CC=C2N=CN=C(Nc3cccc(C(F)(F)F)c3)C21` (stereo not drawn): 0.912 nM.
For `Brc1cccc(Nc2ncnc3cc4c(cc23)CN4)c1`, the IC50 is 0.437 nM.
Next, `C=CC(=O)Nc1cc2c(Cc3cccc(C)c3)ncnc2cc1OCCCN1CCC(C)CC1`: 2 nM.
In the case of `O=C(Nc1ccc(C(F)(F)F)cc1)Nc1ncnc2nn3ccccc3c12` it was 10000 nM.
As for `COC[C@H]1Oc2cc3ncnc(Nc4cccc(Cl)c4)c3cc2O[C@@H]1COC`, the IC50 came out at 10.1 nM.
In the case of `CN(C)CCN1Cc2cc3c(Nc4cccc(Br)c4)ncnc3cc21` it was 40.7 nM.
`C=CC(=O)C(CCCN1CCOCC1)c1cc2c(Nc3cccc(Br)c3)ncnc2cn1` (stereo not drawn) had an IC50 of 2.69 nM.
In the case of `CN(C)CCCNC(=O)/C=C/C(=O)Cc1cc2c(Nc3cccc(Br)c3)ncnc2cn1` it was 1.1 nM; in that of `O=C(/C=C\Cl)Cc1cc2c(Nc3cccc(Br)c3)ncnc2cn1`, 0.692 nM.
In the case of `N#Cc1cccc(NC(=O)Nc2ncnc3nn4ccccc4c23)c1` it was 10000 nM; in that of `C=CC(=O)Nc1nc2c(Cc3ccc(F)c(Cl)c3)ncnc2cc1OC`, 0.955 nM.
In the case of `CN1Cc2cc3c(Nc4cccc(Br)c4)ncnc3cc21` it was 0.794 nM; in that of `C=CC(=O)Nc1cc2c(Cc3cccc(Br)c3)ncnc2cc1OCCCN1CCC(C)CC1`, 1.7 nM.
`C=CC(=O)NC1=CC=C2N=CN=C(Nc3cccc(C)c3)C21` (stereo not drawn) showed an IC50 of 0.417 nM.
Regarding `COc1cc2ncnc(Nc3ccc(F)c(Cl)c3)c2cc1CNC(=O)[C@H]1CCCCN1C`, the IC50 turned out to be 8 nM.
